Activity calls are given as the source filed them. No cut-off for these calls is given here.
Legend:
RAW264.7 [1] = assay: Cytotoxicity against mouse RAW264.7 cells assessed as reduction in cell viability up to 30 uM after 18 hrs by MTT assay; format: cell-based; conditions: raw264.7, 18 h
RAW264.7 [2] = assay: Anti-inflammatory activity in mouse RAW264.7 cells assessed as inhibition of LPS-induced ROS production at 30 uM measured after 4 hrs by H2DCFDA-AM probe based fluorescence assay; format: functional, cell-based
RAW264.7 [3] = assay: Anti-inflammatory activity in mouse RAW264.7 cells assessed as inhibition of LPS-induced NO production at 30 uM preincubated for 30 mins followed by LPS stimulation measured after 4 hrs by Griess assay relative to control; format: functional
RAW264.7 [4] = assay: Cytotoxicity against mouse RAW264.7 cells assessed as reduction in cell viability at 30 uM after 18 hrs by MTT assay; format: cell-based; conditions: raw264.7, 18 h
RAW264.7 [5] = assay: Cytotoxicity against mouse RAW264.7 cells assessed as reduction in cell viability at 30 to 50 uM after 18 hrs by MTT assay; format: cell-based; conditions: raw264.7, 18 h
RAW264.7 [6] = assay: Anti-inflammatory activity in mouse RAW264.7 cells assessed as inhibition of LPS-induced ROS production measured after 4 hrs by H2DCFDA-AM probe based fluorescence assay; format: functional, cell-based; conditions: for IC50: RAW264.7, 4 h
RAW264.7 [7] = assay: Anti-inflammatory activity in mouse RAW264.7 cells assessed as inhibition of LPS-induced IL-6 mRNA level at 30 uM preincubated for 30 mins followed by LPS stimulation measured after 4 hrs by RT-PCR method relative to control; format: functional
RAW264.7 [8] = assay: Anti-inflammatory activity in mouse RAW264.7 cells assessed as inhibition of LPS-induced IL-1beta mRNA level at 30 uM preincubated for 30 mins followed by LPS stimulation measured after 4 hrs by RT-PCR method relative to control; format: functional
RAW264.7 [9] = assay: Cytotoxicity against mouse RAW264.7 cells assessed as reduction in cell viability at 30 uM after 1 hr by MTT assay; format: cell-based; conditions: raw264.7, 1 h
RAW264.7 [10] = assay: Anti-inflammatory activity in mouse RAW264.7 cells assessed as inhibition of LPS-induced ROS production at 1 to 10 uM measured after 4 hrs by H2DCFDA-AM probe based fluorescence assay; format: functional, cell-based
[11] = Cytotoxicity against mouse RAW264.7 cells assessed as cell viability at 30 uM after 18 hrs by MTT assay relative to control; format: cell-based; conditions: read-out: Activity
RAW264.7 [12] = assay: Cytotoxicity against mouse RAW264.7 cells assessed as reduction in cell viability after 18 hrs by MTT assay; format: cell-based; conditions: raw264.7, 18 h

| IC50 (RAW264.7 [6]) [µM] | Compound | Activity (RAW264.7 [1]) | inhibition (RAW264.7 [2]) | inhibition at 30 µM (RAW264.7 [3]) [%] | Activity (RAW264.7 [4]) | Activity (RAW264.7 [5]) | inhibition at 30 µM (RAW264.7 [7]) [%] | inhibition at 30 µM (RAW264.7 [8]) [%] | also measured |
| --- | --- | --- | --- | --- | --- | --- | --- | --- | --- |
| 30 to 50 | O=C1CCc2ccc(cc2)Oc2cc(ccc2O)CCCN1 | Non-Toxic | Active | 65 | Non-Toxic | Non-Toxic | > 60 | 30 to 50 | – |
| – | COc1ccc2cc1Oc1ccc(cc1)C[C@@H]1NC(=O)N(CCC2)C1=O | – | – | – | Non-Toxic | – | – | – | – |
| – | O=C1N[C@H]2Cc3ccc(cc3)Oc3cc(ccc3O)CCCN1C2=O | – | – | – | Non-Toxic | – | – | – | – |
| – | Oc1ccc2cc1Oc1ccc(cc1)CCc1cn(nn1)CC2 | – | – | – | Non-Toxic | – | – | – | – |
| – | N[C@H]1Cc2ccc(cc2)Oc2cc(ccc2O)CCCNC1=O | – | inactive | – | Non-Toxic | – | – | – | – |
| – | COc1ccc(CCC(O)/C=C\CCc2ccc(O)cc2)cc1Br (centres undefined) | – | Active | – | Toxic | – | – | – | Activity (RAW264.7 [9]): Non-Toxic |
| 30 | Cc1c(C)c2c(c(C)c1O)CCC(C)(C(=O)O)O2 (centres undefined) [TROLOX] | – | – | – | Non-Toxic | – | – | – | inhibition (RAW264.7 [6]): Dose-dependent effect |
| 30 | COc1ccc(CCCNC(=O)[C@@H](N)Cc2ccc(O)cc2)cc1Br | Non-Toxic | Active | > 80 | Non-Toxic | Non-Toxic | > 60 | 30 to 50 | – |
| 30 | COc1ccc2cc1Oc1ccc(cc1)C[C@H](N)C(=O)NCCC2 | Non-Toxic | Active | > 80 | Non-Toxic | Non-Toxic | > 60 | 30 to 50 | – |
| – | COc1ccc2cc1Oc1ccc(cc1)CC/C=C\C(O)CC2 (centres undefined) | – | – | – | Non-Toxic | – | – | – | – |
| 30 to 50 | Oc1ccc2cc1Oc1ccc(cc1)CC/C=C\C(O)CC2 (centres undefined) | Non-Toxic | Active | > 80 | Non-Toxic | Toxic | > 60 | 30 to 50 | – |
| – | COc1ccc(CCn2cc(CCc3ccc(O)cc3)nn2)cc1Br | – | – | – | Non-Toxic | – | – | – | – |
| – | COc1ccc2cc1Oc1ccc(cc1)CCC(=O)NCCC2 | – | – | – | Non-Toxic | – | – | – | – |
| – | COc1ccc2cc1Oc1ccc(cc1)CCc1cn(nn1)CC2 | – | – | – | Non-Toxic | – | – | – | – |
| 30 | Oc1ccc2cc1Oc1ccc(cc1)CC/C=C\C=C\C2 | – | Active | > 65 | – | – | – | – | inhibition (RAW264.7 [10]): inactive; Activity (RAW264.7 [9]): Non-Toxic; viability at 18 h, 30 µM [11]: < 60%; Activity (RAW264.7 [12]): Dose-dependent effect; inhibition (RAW264.7 [7]): Active; inhibition (RAW264.7 [8]): Active |
| 30 to 50 | COc1ccc(CCCNC(=O)CCc2ccc(O)cc2)cc1Br | Non-Toxic | Active | > 80 | Non-Toxic | Toxic | > 60 | 30 to 50 | – |

Reference: ChEMBL document CHEMBL4251613, “Synthesis and biological evaluation of diarylheptanoids as potential antioxidant and anti-inflammatory agents” (Eur J Med Chem, 2018)
